Reference: publication PMC12651750 (Cells, 2025)
Read-outs that look alike come from different tables or passages of the source.

Tests used:
[1] = test system: Jurkat, human leukemic T cell line; assay: Anti-proliferation MTT / CCK-8 assay; type: cell-based; settings: Homo sapiens, Jurkat, 72 h
Experimental: These cells were purchased from the National Collection of Authenticated Cell Cultures (Shanghai, China).
(§1) The concentration of the cell suspension was adjusted to the appropriate concentration with fresh medium (the number of cells was about 30–40% of the bottom area of the well plate). 150 μL (about 1 × 10^4 cells) of prepared cell suspension containing different concentrations of NBU-2 were added to a 96-microtiter plate, and 3 replicate wells were set up for each concentration. If the cells were adherent, the cells were first allowed to grow overnight in 96 microtiter plates until the cells were adherent, and then the old medium was replaced with the drug-containing medium. The plates were incubated in a 5% CO2 cell incubator at 37 °C for 72 h. Then, 15 μL of MTT solution was added to each well, 100 μL of 10% SDS solution (pH = 2) was added after 4 h, and the plate was incubated at 37 °C with 5% CO2 overnight to fully dissolve the crystals.
(§2) The cells (about 1 × 10^4 cells) were treated with different concentrations of NBU-2 and DMSO control for different times (24 h, 48 h, 72 h), with 3 replicate wells for each concentration. Incubate at 37 °C in a 5% CO2 cell culture incubator. After a predetermined time, 10 μL of CCK-8 was added to each well and incubated for 2 h. The absorbance was measured at the excitation wavelength of 450 nm.

[2] = test system: 4T1, mouse breast cancer cell line; assay: Anti-proliferation MTT / CCK-8 assay; type: cell-based; settings: 72 h
Excerpt: (§3) K562, human erythroleukemia line; HL-60, human leukemic cell line; Jurkat, human leukemic T cell line; CCRF-CEM, human leukemic lymphoblasts; U937, human histiocytic lymphoma; HCT-116, human colorectal cancer cell line; A549, human lung cancer cell line; Hep G2, human hepatoma cell lines; MDA-MB-231, MCF-7, human breast cancer cell line; 4T1, mouse breast cancer cell line; PC12, pheochromocytoma of the rat adrenal medulla; HUVEC, human umbilical vein endothelial cells. These cells were purchased from the National Collection of Authenticated Cell Cultures (Shanghai, China).
as §1, with “crystals. Finally, the absorbance value of each well was measured at 570 and 655 nm.” for “crystals.”
as §2

[3] = test system: A549, human lung cancer cell line; assay: Anti-proliferation MTT / CCK-8 assay; type: cell-based; settings: A549, read-out: IC50 proliferation A549, heading: IC50 proliferation A549, 72 h, mean ± SEM of three independent assays
Excerpt: as §3
as §1, with “crystals. Finally, the absorbance value of each well was measured at 570 and 655 nm.” for “crystals.”
as §2

[4] = test system: CCRF-CEM, human leukemic lymphoblasts; assay: Anti-proliferation MTT / CCK-8 assay; type: cell-based; settings: read-out: IC50 proliferation CCRF-CEM, heading: IC50 proliferation CCRF-CEM, 72 h, mean ± SEM of three independent assays
Excerpt: as §3
as §1, with “crystals. Finally, the absorbance value of each well was measured at 570 and 655 nm.” for “crystals.”
as §2

[5] = test system: HCT-116, human colorectal cancer cell line; assay: Anti-proliferation MTT / CCK-8 assay; type: cell-based; settings: HCT-116, read-out: IC50 proliferation HCT-116, heading: IC50 proliferation HCT-116, 72 h, mean ± SEM of three independent assays
Excerpt: as §3
as §1, with “crystals. Finally, the absorbance value of each well was measured at 570 and 655 nm.” for “crystals.”
as §2

[6] = test system: HL-60, human leukemic cell line; assay: Anti-proliferation MTT / CCK-8 assay; type: cell-based; settings: HL-60, read-out: IC50 proliferation HL-60, heading: IC50 proliferation HL-60, 72 h, mean ± SEM of three independent assays
Excerpt: as §3
as §1, with “crystals. Finally, the absorbance value of each well was measured at 570 and 655 nm.” for “crystals.”
as §2

[7] = test system: Hep G2, human hepatoma cell lines; assay: Anti-proliferation MTT / CCK-8 assay; type: cell-based; settings: HepG2, read-out: IC50 proliferation HepG2, heading: IC50 proliferation HepG2, 72 h, mean ± SEM of three independent assays
Excerpt: as §3
as §1, with “crystals. Finally, the absorbance value of each well was measured at 570 and 655 nm.” for “crystals.”
as §2

[8] = test system: K562, human erythroleukemia line; assay: Anti-proliferation MTT / CCK-8 assay; type: cell-based; settings: K562, read-out: IC50 proliferation K562, heading: IC50 proliferation K562, 72 h, mean ± SEM of three independent assays
Excerpt: as §3
as §1, with “crystals. Finally, the absorbance value of each well was measured at 570 and 655 nm.” for “crystals.”
as §2

[9] = test system: MDA-MB-231, human breast cancer cell line; assay: Anti-proliferation MTT / CCK-8 assay; type: cell-based; settings: MDA-MB-231, read-out: IC50 proliferation MDA-MB-231, heading: IC50 proliferation MDA-MB-231, 72 h, mean ± SEM of three independent assays
Excerpt: as §3
as §1, with “crystals. Finally, the absorbance value of each well was measured at 570 and 655 nm.” for “crystals.”
as §2

[10] = test system: PC12, pheochromocytoma of the rat adrenal medulla; assay: Anti-proliferation MTT / CCK-8 assay; type: cell-based; settings: PC-12, 72 h
Excerpt: as §3
as §1, with “crystals. Finally, the absorbance value of each well was measured at 570 and 655 nm.” for “crystals.”
as §2

[11] = test system: U937, human histiocytic lymphoma; assay: Anti-proliferation MTT / CCK-8 assay; type: cell-based; settings: U-937, read-out: IC50 proliferation U937, heading: IC50 proliferation U937, 72 h, mean ± SEM of three independent assays
Excerpt: as §3
as §1, with “crystals. Finally, the absorbance value of each well was measured at 570 and 655 nm.” for “crystals.”
as §2

HDAC1 = HDAC1 (Homo sapiens, UniProt Q13547); assay: In vitro HDAC enzymatic inhibition assay (HDAC kit, fluorescence)
Experimental: (§4) Enzymatic assays were performed by Shanghai ChemPartner according to the HDAC kit protocol. […] Fluorescence was recorded at 355 nm excitation and 460 nm emission on a Synergy MX reader (PerkinElmer Life Sciences, Boston, MA, USA). IC50 values were derived from dose–response curves.

HDAC6 = biological target: T1, HDAC6 (Homo sapiens, UniProt Q9UBN7); assay: as above
T1 sequence (Q9UBN7 1-1215): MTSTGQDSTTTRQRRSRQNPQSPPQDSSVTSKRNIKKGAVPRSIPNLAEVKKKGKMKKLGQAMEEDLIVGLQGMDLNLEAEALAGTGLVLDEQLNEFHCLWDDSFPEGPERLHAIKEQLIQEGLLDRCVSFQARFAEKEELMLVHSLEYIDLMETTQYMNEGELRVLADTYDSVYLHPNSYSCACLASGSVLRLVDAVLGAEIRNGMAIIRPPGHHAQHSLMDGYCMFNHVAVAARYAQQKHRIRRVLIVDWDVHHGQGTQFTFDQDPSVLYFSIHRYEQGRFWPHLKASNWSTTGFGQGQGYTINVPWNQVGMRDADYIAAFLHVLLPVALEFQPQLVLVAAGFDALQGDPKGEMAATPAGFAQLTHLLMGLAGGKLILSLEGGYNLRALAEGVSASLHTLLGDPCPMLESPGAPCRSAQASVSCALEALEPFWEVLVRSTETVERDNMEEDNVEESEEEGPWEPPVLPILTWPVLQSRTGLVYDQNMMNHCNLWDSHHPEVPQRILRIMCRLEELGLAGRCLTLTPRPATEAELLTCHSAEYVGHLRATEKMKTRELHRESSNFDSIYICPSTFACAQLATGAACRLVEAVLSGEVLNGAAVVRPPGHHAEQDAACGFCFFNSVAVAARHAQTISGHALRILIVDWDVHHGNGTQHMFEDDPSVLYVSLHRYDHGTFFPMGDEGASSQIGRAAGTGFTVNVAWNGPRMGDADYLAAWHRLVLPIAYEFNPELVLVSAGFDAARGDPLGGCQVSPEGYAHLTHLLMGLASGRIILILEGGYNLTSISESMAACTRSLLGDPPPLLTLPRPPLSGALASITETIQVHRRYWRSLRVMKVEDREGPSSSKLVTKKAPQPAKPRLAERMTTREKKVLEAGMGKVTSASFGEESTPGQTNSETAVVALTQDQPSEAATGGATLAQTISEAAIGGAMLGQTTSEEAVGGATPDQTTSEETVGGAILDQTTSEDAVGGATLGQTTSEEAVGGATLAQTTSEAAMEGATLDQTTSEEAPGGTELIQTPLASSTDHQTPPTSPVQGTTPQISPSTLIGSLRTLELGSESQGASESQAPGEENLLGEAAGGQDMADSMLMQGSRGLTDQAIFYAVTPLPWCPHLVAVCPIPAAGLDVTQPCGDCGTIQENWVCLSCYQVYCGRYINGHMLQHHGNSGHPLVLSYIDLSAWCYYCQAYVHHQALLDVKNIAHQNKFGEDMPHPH
Experimental: as §4

Chain of HDAC1 (Q13547 whole entry): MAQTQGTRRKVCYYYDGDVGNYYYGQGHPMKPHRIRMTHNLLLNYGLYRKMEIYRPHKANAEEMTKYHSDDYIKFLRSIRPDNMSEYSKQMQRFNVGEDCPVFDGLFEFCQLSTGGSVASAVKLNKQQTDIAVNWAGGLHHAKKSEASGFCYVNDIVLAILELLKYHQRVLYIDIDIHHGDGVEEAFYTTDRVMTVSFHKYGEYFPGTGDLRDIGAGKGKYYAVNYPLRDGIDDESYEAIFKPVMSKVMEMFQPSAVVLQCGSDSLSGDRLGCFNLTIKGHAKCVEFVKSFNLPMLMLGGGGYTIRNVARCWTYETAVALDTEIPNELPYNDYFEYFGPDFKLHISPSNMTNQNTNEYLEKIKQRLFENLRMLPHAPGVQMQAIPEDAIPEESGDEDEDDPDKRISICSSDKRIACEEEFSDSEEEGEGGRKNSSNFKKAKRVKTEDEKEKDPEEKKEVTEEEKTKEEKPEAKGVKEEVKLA

| SMILES | IC50 ([1]; read-out: IC50 against Jurkat cells) [nM] | IC50 ([1]; read-out: IC50 proliferation Jurkat, heading: IC50 proliferation Jurkat, mean ± SEM of three independent assays) [nM] | IC50 [2] [nM] | IC50 [3] [nM] | IC50 [4] [nM] | IC50 [5] [nM] | IC50 [6] [nM] | IC50 [7] [nM] | IC50 [8] [nM] | IC50 [9] [nM] | IC50 [10] [nM] | IC50 [11] [nM] | IC50 (HDAC1) [nM] | IC50 (HDAC6) [nM] |
| --- | --- | --- | --- | --- | --- | --- | --- | --- | --- | --- | --- | --- | --- | --- |
| Nc1cc(F)ccc1NC(=O)c1ccc(CNC(=O)/C=C/c2cccnc2)cc1 [Chidamide, reference compound] | 2230 | 2230 ± 220 | > 50 | > 50000 | 1660 ± 340 | 3860 ± 1090 | 860 ± 70 | 500 ± 20 | 1650 ± 640 | 9750 ± 1780 | > 50 | 1310 ± 380 | – | – |
| O=C(NO)c1ccc(CNc2ccnc3ccccc23)cc1 [NBU-1, N-hydroxy-4-((quinolin-4-ylamino)methyl)benzamide] | – | – | – | – | – | – | – | – | – | – | – | – | 242 ± 15 | 114 ± 28 |
